Results on two compounds are retold here after ChEMBL document CHEMBL4373692, “Structure-Based Development of (1-(3'-Mercaptopropanamido)methyl)boronic Acid Derived Broad-Spectrum, Dual-Action Inhibitors of Metallo- and Serine-β-lactamases” (J Med Chem, 2019).

Series [1] can be described thus: Inhibition of bacterial N-terminal His-tagged TEV protease site linked VIM-2 (27 to 266 amino acids) expressed in Escherichia coli Transetta (DE3) preincubated for 10 mins followed by FC5 fluorescent substrate addition by fluorescence assay. Also on record: species or system Bacteria.
Series [2] in a line: Inhibition of bacterial N-terminal His-tagged TEV protease site linked NDM-1 (1 to 270 amino acids) expressed in Escherichia coli Transetta (DE3) preincubated for 10 mins followed by FC5 fluorescent substrate addition by fluorescence assay. Also on record: species or system Bacteria.
Series [3] is described as follows: Inhibition of bacterial N-terminal His-tagged TEV protease site linked SFH1 (3 to 234 amino acids) expressed in Escherichia coli Transetta (DE3) preincubated for 10 mins followed by FC5 fluorescent substrate addition by fluorescence assay. Also on record: species or system Bacteria.
Series [4] can be described thus: Inhibition of bacterial N-terminal His-tagged TEV protease site linked GOB-18 (1 to 290 amino acids) expressed in Escherichia coli Transetta (DE3) preincubated for 10 mins followed by FC5 fluorescent substrate addition by fluorescence assay. Also on record: species or system Bacteria.
The nature of series [5]: Inhibition of bacterial N-terminal His-tagged TEV protease site linked KPC-2 (29 to 289 amino acids) expressed in Escherichia coli Transetta (DE3) preincubated for 10 mins followed by FC5 fluorescent substrate addition by fluorescence assay. Also on record: species or system Bacteria.
Another series has as its target Beta-lactamase TEM (Bacteria, UniProt P62593). The series is described as follows: Inhibition of bacterial N-terminal His-tagged TEV protease site linked TEM-1 (24 to 286 amino acids) expressed in Escherichia coli Transetta (DE3) preincubated for 10 mins followed by FC5 fluorescent substrate addition by fluorescence assay.
Series [6] in a line: Inhibition of bacterial N-terminal His-tagged TEV protease site linked AmpC (20 to 377 amino acids) expressed in Escherichia coli Transetta (DE3) preincubated for 10 mins followed by FC5 fluorescent substrate addition by fluorescence assay. Further details: species or system Bacteria; call rule not given here.
Series [7] is described as follows: Inhibition of bacterial N-terminal His-tagged TEV protease site linked OXA-48 (1 to 265 amino acids) expressed in Escherichia coli Transetta (DE3) preincubated for 10 mins followed by FC5 fluorescent substrate addition by fluorescence assay. Further details: species or system Bacteria.
Series [8] deals with serine hydrolase. The series is described as follows: (§1) Inhibition of serine hydrolase in Escherichia coli Transetta (DE3) cell lysates at 50 uM preincubated for 30 mins followed by TAMRA-FP probe labeling for 20 mins by SDS-PAGE based ABPP analysis. The series is classed as subcellular, Lysate. Particulars: Escherichia coli Transetta (DE3) cell lysates, probe TAMRA-FP.
Series [9] concerns serine hydrolase. As to the kind of experiment: (§2) Inhibition of serine hydrolase in HEK293T cell lysates at 50 uM preincubated for 30 mins followed by TAMRA-FP probe labeling for 20 mins by SDS-PAGE based ABPP analysis. The series is classed as subcellular, Lysate. The conditions noted are these: human, HEK293T cell lysates, probe TAMRA-FP.
For series [10], the target named is Angiotensin-converting enzyme 2 (Homo sapiens, UniProt Q9BYF1). The series is described as follows: (§3) Inhibition of human C-terminal His/FLAG-tagged ACE-2 expressed in HEK293 cells at 100 uM preincubated for 10 mins followed by Mca-Ala-Pro-Lys(Dnp)-OH substrate addition by fluorescence assay relative to control. The series is classed as cell-based. Particulars: hek293, 100 µM.
Sequence of Angiotensin-converting enzyme 2 (Q9BYF1 whole entry): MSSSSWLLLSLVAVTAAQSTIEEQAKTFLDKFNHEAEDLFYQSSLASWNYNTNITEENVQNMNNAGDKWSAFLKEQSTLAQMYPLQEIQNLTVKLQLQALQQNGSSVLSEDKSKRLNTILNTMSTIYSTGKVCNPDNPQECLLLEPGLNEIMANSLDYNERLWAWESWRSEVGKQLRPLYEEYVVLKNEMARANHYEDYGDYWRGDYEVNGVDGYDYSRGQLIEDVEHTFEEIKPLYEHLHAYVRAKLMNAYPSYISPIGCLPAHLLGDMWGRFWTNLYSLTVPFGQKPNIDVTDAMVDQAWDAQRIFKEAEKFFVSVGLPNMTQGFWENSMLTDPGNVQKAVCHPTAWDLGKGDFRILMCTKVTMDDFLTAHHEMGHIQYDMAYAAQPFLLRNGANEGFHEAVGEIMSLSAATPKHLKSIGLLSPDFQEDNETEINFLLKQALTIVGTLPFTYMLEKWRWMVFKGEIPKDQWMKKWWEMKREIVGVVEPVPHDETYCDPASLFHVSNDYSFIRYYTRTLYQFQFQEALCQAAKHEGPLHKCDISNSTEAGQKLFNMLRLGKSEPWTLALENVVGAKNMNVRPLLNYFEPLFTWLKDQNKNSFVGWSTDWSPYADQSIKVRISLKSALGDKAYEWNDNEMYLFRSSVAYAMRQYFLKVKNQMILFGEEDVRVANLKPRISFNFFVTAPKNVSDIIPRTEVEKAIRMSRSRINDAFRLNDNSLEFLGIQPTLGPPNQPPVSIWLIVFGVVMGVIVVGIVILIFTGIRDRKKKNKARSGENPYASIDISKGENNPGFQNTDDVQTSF

In another series the test system is Escherichia coli. As to the kind of experiment: Inhibition of beta lactamase NDM1 in Escherichia coli BAA-2452 assessed as potentiation of meropenem-induced antibacterial activity by measuring meropenem MIC at 50 uM after 16 to 20 hrs by broth microdilution assay (reference value: 32 ug/ml). (In general: Broth dilution looks for growth in wells or tubes with falling amounts of substance.)

Series [11] concerns the target Metallo-beta-lactamase type 2 (Klebsiella pneumoniae) (UniProt C7C422). As to the kind of experiment: Inhibition of beta lactamase NDM1 in Klebsiella pneumoniae 13249 assessed as potentiation of meropenem-induced antibacterial activity by measuring meropenem MIC at 50 uM after 16 to 20 hrs by broth microdilution assay (reference value: 64 ug/ml).
Series [12] has as its system Klebsiella pneumoniae. The series is described as follows: Inhibition of beta lactamase KPC-2 in Klebsiella pneumoniae BAA-1705 assessed as potentiation of meropenem-induced antibacterial activity by measuring meropenem MIC at 50 uM after 16 to 20 hrs by broth microdilution assay.
In series [13] the test system is Klebsiella pneumoniae. As to the kind of experiment: Inhibition of beta lactamase KPC-2 in Klebsiella pneumoniae 5846 assessed as potentiation of meropenem-induced antibacterial activity by measuring meropenem MIC at 50 uM after 16 to 20 hrs by broth microdilution assay (reference value: […] ug/ml).
In series [14] the test system is Klebsiella pneumoniae. The series is described as follows: Inhibition of beta lactamase AmpC in Klebsiella pneumoniae C660 assessed as potentiation of meropenem-induced antibacterial activity by measuring meropenem MIC at 50 uM after 16 to 20 hrs by broth microdilution assay (reference value: 32 ug/ml).
A further series concerns HEK-293T. As to the kind of experiment: Cytotoxicity against HEK293T cells up to 100 uM after 72 hrs by MTT assay. The series is classed as cell-based. The conditions noted are these: human. A general note: Tetrazolium dyes change colour on reduction, which living cells bring about.
The subject of the next series is MCF7. As to the kind of experiment: Cytotoxicity against human MCF7 cells up to 100 uM after 72 hrs by MTT assay. The conditions noted are these: mcf7, 72 h. The series is classed as cell-based.
Series [15] deals with Class A carbapenemase KPC-2 (Escherichia coli) (UniProt A8DS27). Particulars: BAA-2340.
Series [16] has the same target. The conditions noted are these: 11119.
Series [17] concerns the target T1, Angiotensin-converting enzyme 2 (ACE-2) (Homo sapiens, UniProt Q9BYF1). The series is described as follows: Inhibition of human C-terminal His/FLAG-tagged ACE-2 expressed in HEK293 cells at 50 uM preincubated for 10 mins followed by Mca-Ala-Pro-Lys(Dnp)-OH substrate addition by fluorescence assay relative to control. Particulars: probe Mca-Ala-Pro-Lys(Dnp)-OH. The series is classed as cell-based.

Series [18] can be described thus: as §1. The conditions noted are these: 20 min, 50 µM. The series is classed as subcellular, Lysate.
A short description of series [19]: as §2. The series is classed as subcellular, Lysate. The conditions noted are these: human, 20 min, 50 µM.
The target in series [20] is T1, Angiotensin-converting enzyme 2 (ACE-2). Described as §3. The series is classed as cell-based. Particulars: probe Mca-Ala-Pro-Lys(Dnp)-OH.

Values after ≈ are worked out from the molar mass of the structure shown.

T1 sequence (Q9BYF1 whole entry): as above

As for `C[C@H](CS)C(=O)NCB(O)O`, the Ki (in general, a dissociation constant, usually derived from enzyme kinetics or from competition with a known ligand) in series [1] was 0.76 µM; in series [2], 67.1 µM; in series [3], 7.34 µM; in series [4], 2.23 µM; in [5], 2.7 µM; on Beta-lactamase TEM, 41 µM. Besides, the inhibitory constant (Ki) in [6] was 6.46 µM; in series [7], 70.2 µM. Also, the inhibition at 20 min, 50 µM in the series with serine hydrolase [8] and in the series with serine hydrolase [9] was less than 50% each time. In [10], the “inhibition (INH)” value is listed as “Not Active”. In addition, the MIC with Escherichia coli worked out at 16 µg/mL; in series [11], 64 µg/mL; in the series on Klebsiella pneumoniae [12], 8 µg/mL; with Klebsiella pneumoniae [13] it was 4 µg/mL; in the series with Klebsiella pneumoniae [14], 8 µg/mL; in [15], 0.5 µg/mL (≈ 2.82 µM). Besides, in [16], the MIC turned out to be 4 µg/mL (≈ 22.6 µM). Moreover, the Activity result with HEK-293T and in the series on MCF7 was “Non-Toxic” in each case.
In the case of `O=C(N[C@@H](Cc1ccccc1)B(O)O)C(CS)Cc1ccccc1` (some centres not stated), the inhibition (usually the relative decrease from the control value, in per cent) at 10 min, 50 µM in [17] amounted to 44.6%. The inhibition constant (Ki) in series [1] worked out at 3 µM; in series [2], 6.87 µM; in [3], 5.79 µM; in [4], 14.3 µM; in series [5] it was 13.7 µM; on Beta-lactamase TEM it was 114 µM. Further, the Ki was 11.6 µM in series [6] and more than 300 µM in [7]. Moreover, the “inhibition (INH)” value in series [18] and in [19] was “Not Active” each time. This compound came in with an inhibition at 10 min, 100 µM in series [20] of 63.2%.
